Experimental data taken from US20200231638A1, “STABILIZED ANTI-MICROBIAL PEPTIDES” (priority 2015, published 2020).
Bridge positions count the residues as written; N and C are the ends. Square brackets hold non-standard residues; d marks the D form. Peptide text beside a SMILES is read from it. S5 = C=CCCC[C@](C)(N)C(=O)O; Nle = CCCC[C@H](N)C(=O)O

Experiments:
E. coli = format: cell-based, Escherichia coli
Description: (§1) Antimicrobial Activity Assay:
(§2) The following microbroth dilution protocol was adapted to determine the minimum inhibitory concentration (MIC) of each peptide. First, Mueller-Hinton broth (MHB) was passed through an anion exchange column to remove polyanionic species and generate refined MHB. […] Briefly, bacterial cells was grown overnight in refined MHB at 37° C. and then diluted and allowed to grow again for several hours. Serial dilutions of peptide stocks in water (10 μl) were prepared using clear round-bottom polypropylene 96-well plates. Then 90 μl of bacteria in refined MHB was added to give a final inoculum of 5×10^5 CFU/ml. The plates were then covered with porous tape to reduce evaporation, and incubated for 20-24 hours at 37° C. The MIC is the minimum peptide concentration at which no visible growth was observed.

B. cereus = format: cell-based, Bacillus cereus
Description: as §1, §2

S. aureus = format: cell-based, Staphylococcus aureus
Description: as §1, §2

P. aeruginosa = format: cell-based, Pseudomonas aeruginosa
Description: as §1, §2

human red blood cells = format: cell-based; conditions: for % Hemolysis at 25 μg/ml: red cells of human, 1 h
Description: FIG. 5 is a series of line graphs depicting the hemolytic activity of magainin II and stapled analogues. Peptides were incubated with 1% (v/v) human red blood cells in phosphate-buffered solution for 1 hour at 37° C. and then the supernatant was isolated and the amount of hemoglobin released was measured at 540 nm. % hemolysis was calculated relative to an untreated control.
Hemolytic Activity Assay:
For the determination of hemolytic activity, human blood samples were centrifuged to isolate red blood cells (RBCs), which are then washed and suspended in phosphate-buffered saline to yield a 1% (v/v) suspension. The suspension was then added to serial dilutions of peptide stocks in water in clear round-bottom polypropylene 96-well plates and the plates were incubated for 1 hour at 37° C. After incubation, the plates were centrifuged and the supernatant was isolated to determine the amount of hemoglobin released using a spectrophotometer (570 nm), according to the equation: % Hemolysis=(Treated Absorbance−Untreated Control Absorbance)/(1% Triton-X100 Treated Absorbance−Untreated Control Absorbance). The minimum hemolytic concentration (MHC) is the peptide concentration at which there is less than 1% hemoglobin release.

Compound | MIC E. coli (E. coli) | MIC B. cereus (B. cereus) | MIC S. aureus (S. aureus) | MIC P. aeruginosa (P. aeruginosa) | % Hemolysis at 25 μg/ml (human red blood cells) | hemolytic activity at concentrations 8-fold higher than its MIC (human red blood cells)
CCCC[C@H](NC(=O)[C@@H](NC(=O)[C@H](CCC(=O)O)NC(=O)CNC(=O)[C@@H](NC(=O)[C@H](Cc1ccccc1)NC(=O)[C@H](C)NC(=O)[C@H](CCCCN)NC(=O)CNC(=O)[C@H](Cc1ccccc1)NC(=O)[C@H](CCCCN)NC(=O)[C@H](CCCCN)NC(=O)[C@H](C)NC(=O)[C@H](CO)NC(=O)[C@H](Cc1c[nH]cn1)NC(=O)[C@H](CC(C)C)NC(=O)[C@]1(C)CCCC=CCCC[C@](C)(N)C(=O)N[C@@H]([C@@H](C)CC)C(=O)NCC(=O)N[C@@H](CCCCN)C(=O)N1)C(C)C)[C@@H](C)CC)C(=O)N[C@@H](CC(N)=O)C(=O)N[C@@H](CO)C(N)=O [Mag(i + 4)0, XIGKXLHSAKKFGKAFVGEIBNS] (H-[S5]IGK[S5]LHSAKKFGKAFVGEI[Nle]NS-NH2; staple 1-5) | 3.1 µg/mL | 12.5 µg/mL | >50 µg/mL | 50 µg/mL | 4.8% | 
CCCC[C@H](NC(=O)[C@]1(C)CCCC=CCCC[C@](C)(NC(=O)[C@H](C)NC(=O)[C@H](CCCCN)NC(=O)CNC(=O)[C@H](Cc2ccccc2)NC(=O)[C@H](CCCCN)NC(=O)[C@H](CCCCN)NC(=O)[C@H](CCCCN)NC(=O)[C@H](CO)NC(=O)[C@H](Cc2c[nH]cn2)NC(=O)[C@]2(C)CCCC=CCCC[C@](C)(NC(=O)CN)C(=O)NCC(=O)N[C@@H](CCCCN)C(=O)N[C@@H](Cc3ccccc3)C(=O)N2)C(=O)N[C@@H](C(C)C)C(=O)NCC(=O)N[C@@H](CCC(=O)O)C(=O)N1)C(=O)N[C@@H](CC(N)=O)C(=O)N[C@@H](CO)C(N)=O [Mag(i + 4)1, 15(A9K), GXGKFXHSKKKFGKAXVGEXBNS] (H-G[S5]GKF[S5]HSKKKFGKA[S5]VGE[S5][Nle]NS-NH2; staple 2-6, 16-20) | 1.6 µg/mL | 25 µg/mL | 50 µg/mL | 3.1 µg/mL | 2.4% | little hemolytic activity
CCCC[C@H](NC(=O)[C@]1(C)CCCC=CCCC[C@](C)(NC(=O)[C@H](C)NC(=O)[C@H](CCCCN)NC(=O)CNC(=O)[C@H](Cc2ccccc2)NC(=O)[C@H](CCCCN)NC(=O)[C@H](CCCCN)NC(=O)[C@H](CCCCN)NC(=O)[C@H](Cc2c[nH]cn2)NC(=O)[C@H](Cc2c[nH]cn2)NC(=O)[C@]2(C)CCCC=CCCC[C@](C)(NC(=O)CN)C(=O)NCC(=O)N[C@@H](CCCCN)C(=O)N[C@@H](Cc3ccccc3)C(=O)N2)C(=O)N[C@@H](C(C)C)C(=O)N[C@@H](Cc2c[nH]cn2)C(=O)N[C@@H](CCC(=O)O)C(=O)N1)C(=O)N[C@@H](CCC(=O)O)C(=O)N[C@@H](CO)C(N)=O [Mag(i + 4)1, 15(S8H, A9K, G18H, N21E)] (H-G[S5]GKF[S5]HHKKKFGKA[S5]VHE[S5][Nle]ES-NH2; staple 2-6, 16-20; N-terminus assumed) | 3.1 µg/mL | 50 µg/mL | >50 µg/mL | 12.5 µg/mL | 4.2% | 
CCCC[C@H](NC(=O)[C@@H](NC(=O)[C@H](CCC(=O)O)NC(=O)CNC(=O)[C@@H](NC(=O)[C@H](Cc1ccccc1)NC(=O)[C@H](C)NC(=O)[C@H](CCCCN)NC(=O)CNC(=O)[C@H](Cc1ccccc1)NC(=O)[C@H](CCCCN)NC(=O)[C@H](CCCCN)NC(=O)[C@H](C)NC(=O)[C@H](CO)NC(=O)[C@H](Cc1c[nH]cn1)NC(=O)[C@]1(C)CCCC=CCCC[C@](C)(NC(=O)CN)C(=O)NCC(=O)N[C@@H](CCCCN)C(=O)N[C@@H](Cc2ccccc2)C(=O)N1)C(C)C)[C@@H](C)CC)C(=O)N[C@@H](CC(N)=O)C(=O)N[C@@H](CO)C(N)=O [Mag(i + 4)1, GXGKFXHSAKKFGKAFVGEIBNS] (H-G[S5]GKF[S5]HSAKKFGKAFVGEI[Nle]NS-NH2; staple 2-6) | 3.1 µg/mL | 25 µg/mL | >50 µg/mL | 12.5 µg/mL |  | 
CCCC[C@H](NC(=O)[C@]1(C)CCCC=CCCC[C@](C)(NC(=O)[C@H](C)NC(=O)[C@H](CCCCN)NC(=O)CNC(=O)[C@H](Cc2ccccc2)NC(=O)[C@H](CCCCN)NC(=O)[C@H](CCCCN)NC(=O)[C@H](CCCCN)NC(=O)[C@H](CO)NC(=O)[C@]2(C)CCCC=CCCC[C@](C)(NC(=O)[C@@H](NC(=O)CN)[C@@H](C)CC)C(=O)N[C@@H](CCCCN)C(=O)N[C@@H](Cc3ccccc3)C(=O)N[C@@H](CC(C)C)C(=O)N2)C(=O)N[C@@H](C(C)C)C(=O)NCC(=O)N[C@@H](CCC(=O)O)C(=O)N1)C(=O)N[C@@H](CC(N)=O)C(=O)N[C@@H](CO)C(N)=O [Mag(i + 4)2, 15(A9K), GIXKFLXSKKKFGKAXVGEXBNS] (H-GI[S5]KFL[S5]SKKKFGKA[S5]VGE[S5][Nle]NS-NH2; staple 3-7, 16-20) | 1.6 µg/mL | 3.1 µg/mL | 3.1 µg/mL | 3.1 µg/mL |  | 
CCCC[C@H](NC(=O)[C@]1(C)CCCC=CCCC[C@](C)(NC(=O)[C@H](C)NC(=O)[C@H](CCCCN)NC(=O)CNC(=O)[C@H](Cc2ccccc2)NC(=O)[C@H](CCCCN)NC(=O)[C@H](CCCCN)NC(=O)[C@H](Cc2c[nH]cn2)NC(=O)[C@H](CO)NC(=O)[C@]2(C)CCCC=CCCC[C@](C)(NC(=O)[C@H](CCCCN)NC(=O)CN)C(=O)N[C@@H](CCCCN)C(=O)N[C@@H](Cc3ccccc3)C(=O)N[C@@H](CC(C)C)C(=O)N2)C(=O)N[C@@H](C(C)C)C(=O)NCC(=O)N[C@@H](CCC(=O)O)C(=O)N1)C(=O)N[C@@H](CCC(=O)O)C(=O)N[C@@H](CO)C(N)=O [Mag(i + 4)2, 15(I2K, A9H, N21E)] (H-GK[S5]KFL[S5]SHKKFGKA[S5]VGE[S5][Nle]ES-NH2; staple 3-7, 16-20) | 3.1 µg/mL | 25 µg/mL | 50 µg/mL | 12.5 µg/mL | 1.8% | 
CCCC[C@H](NC(=O)[C@]1(C)CCCC=CCCC[C@](C)(NC(=O)[C@H](C)NC(=O)[C@H](CCCCN)NC(=O)CNC(=O)[C@H](Cc2ccccc2)NC(=O)[C@H](CCCCN)NC(=O)[C@H](CCCCN)NC(=O)[C@H](CCCCN)NC(=O)[C@H](CO)NC(=O)[C@]2(C)CCCC=CCCC[C@](C)(NC(=O)[C@H](CCCCN)NC(=O)CN)C(=O)N[C@@H](CCCCN)C(=O)N[C@@H](Cc3ccccc3)C(=O)N[C@@H](CC(C)C)C(=O)N2)C(=O)N[C@@H](C(C)C)C(=O)N[C@@H](Cc2c[nH]cn2)C(=O)N[C@@H](CCC(=O)O)C(=O)N1)C(=O)N[C@@H](CC(N)=O)C(=O)N[C@@H](CO)C(N)=O [Mag(i + 4)2, 15(I2K, A9K, G18H)] (H-GK[S5]KFL[S5]SKKKFGKA[S5]VHE[S5][Nle]NS-NH2; staple 3-7, 16-20) | 3.1 µg/mL | 12.5 µg/mL | 25 µg/mL | 3.1 µg/mL | 2.2% | 
CCCC[C@H](NC(=O)[C@@H](NC(=O)[C@H](CCC(=O)O)NC(=O)CNC(=O)[C@@H](NC(=O)[C@H](Cc1ccccc1)NC(=O)[C@H](C)NC(=O)[C@H](CCCCN)NC(=O)CNC(=O)[C@H](Cc1ccccc1)NC(=O)[C@]1(C)CCCC=CCCC[C@](C)(NC(=O)[C@H](CC(C)C)NC(=O)[C@H](Cc2ccccc2)NC(=O)[C@H](CCCCN)NC(=O)CNC(=O)[C@@H](NC(=O)CN)[C@@H](C)CC)C(=O)N[C@@H](CO)C(=O)N[C@@H](C)C(=O)N[C@@H](CCCCN)C(=O)N1)C(C)C)[C@@H](C)CC)C(=O)N[C@@H](CC(N)=O)C(=O)N[C@@H](CO)C(N)=O [Mag(i + 4)6, GIGKFLXSAKXFGKAFVGEIBNS] (H-GIGKFL[S5]SAK[S5]FGKAFVGEI[Nle]NS-NH2; staple 7-11) | 6.2 µg/mL | 12.5 µg/mL | 25 µg/mL | 25 µg/mL |  | 
